Here are results for 21 compounds from patent publication US11524966B1 (Valo Early Discovery, Inc., priority 2017, dated 2022).

Read-outs that look alike come from different tables or passages of the source. A value given as a limit tells only on which side of the number the result lay.

In this test the target is T1, USP25 (USP25-His6, Boston Biochem E-546) (Homo sapiens, UniProt Q9UHP3).
T1 construct: His6; purchased Boston Biochem E-546
T1 sequence (Q9UHP3 1-1055): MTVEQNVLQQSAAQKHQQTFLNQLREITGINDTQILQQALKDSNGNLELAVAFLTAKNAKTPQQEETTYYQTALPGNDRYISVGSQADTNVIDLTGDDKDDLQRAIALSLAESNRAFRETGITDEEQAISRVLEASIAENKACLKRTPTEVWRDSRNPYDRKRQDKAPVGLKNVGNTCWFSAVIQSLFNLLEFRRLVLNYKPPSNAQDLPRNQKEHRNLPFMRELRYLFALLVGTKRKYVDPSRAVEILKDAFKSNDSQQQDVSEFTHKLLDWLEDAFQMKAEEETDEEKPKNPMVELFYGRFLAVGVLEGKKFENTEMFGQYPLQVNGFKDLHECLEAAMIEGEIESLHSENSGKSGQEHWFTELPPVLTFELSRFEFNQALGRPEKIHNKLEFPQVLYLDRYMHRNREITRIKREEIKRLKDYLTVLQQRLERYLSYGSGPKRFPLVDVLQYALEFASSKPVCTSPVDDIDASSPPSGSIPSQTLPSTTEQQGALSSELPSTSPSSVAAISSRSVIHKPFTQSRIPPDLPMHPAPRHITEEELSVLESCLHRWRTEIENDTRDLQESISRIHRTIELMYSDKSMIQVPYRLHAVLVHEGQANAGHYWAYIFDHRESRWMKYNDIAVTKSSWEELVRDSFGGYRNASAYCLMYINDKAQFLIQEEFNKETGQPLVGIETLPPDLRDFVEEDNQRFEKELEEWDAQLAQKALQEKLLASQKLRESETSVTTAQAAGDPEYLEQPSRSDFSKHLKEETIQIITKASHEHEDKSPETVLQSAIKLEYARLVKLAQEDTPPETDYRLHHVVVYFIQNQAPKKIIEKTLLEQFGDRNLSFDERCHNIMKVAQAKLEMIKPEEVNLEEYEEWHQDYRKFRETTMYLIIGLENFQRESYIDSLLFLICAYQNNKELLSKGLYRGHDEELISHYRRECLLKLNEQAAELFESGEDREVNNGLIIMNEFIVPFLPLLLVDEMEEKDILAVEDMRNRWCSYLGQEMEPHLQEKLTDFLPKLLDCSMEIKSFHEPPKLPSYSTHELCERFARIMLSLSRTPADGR
In words: Ubiquitin-Rhodamine 110 Assay for USP25 Activity, Example A-2. The class given is biochemical. Conditions: Ubiquitin-Rhodamine 110 assay, read-out: USP25 A-2 IC50 range. An outline of the steps: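 Cleavage of ubiquitin-rhodamine 110 (25 nM, well below Km) by His-tagged USP25 at 75 pM is measured fluorimetrically after 45 min at room temperature and acid quench. Inhibitors are preincubated with enzyme for 30 minutes. IC50 values come from four-parameter logistic curve fitting.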

Usually IC50 stands for the concentration needed to halve the response being measured.

With `Cc1cnc2c(N)c(C(=O)N[C@H]3COc4cc(N5CC6CC(C5)N6)cc(F)c4C3)sc2n1` [Example 10-8, N-((3R)-7-(3,6-diazabicyclo[3.1.1]heptan-3-yl)-5-fluorochroman-3-yl)-7-amino-3-methylthieno[2,3-b]pyrazine-6-carboxamide], the IC50 (Example A-2) was in the range of 0.05 to 0.2 µM.

As to `Cc1cc(C)c2c(N)c(C(=O)N[C@H]3COc4cc(N5CCNCC5)cc(F)c4C3)sc2n1` [Example 10-9, (R)-3-amino-N-(5-fluoro-7-(piperazin-1-yl)chroman-3-yl)-4,6-dimethylthieno[2,3-b]pyridine-2-carboxamide], the half-inhibitory concentration (IC50) (Example A-2) is 0.05 to 0.2 µM. The same measure, in the same setting: for `Cc1cnc2c(N)c(C(=O)N[C@H]3COc4cc(N5CCNCC5)cc(F)c4C3)sc2n1` [Example 10-10, (R)-7-amino-N-(5-fluoro-7-(piperazin-1-yl)chroman-3-yl)-3-methylthieno[2,3-b]pyrazine-6-carboxamide] the value was 0.05 to 0.2 µM.

As to `COc1ccc2c(N)c(C(=O)N[C@H]3COc4cc(N5CCNCC5)cc(F)c4C3)sc2n1` [Example 10-11, (R)-3-amino-N-(5-fluoro-7-(piperazin-1-yl)chroman-3-yl)-6-methoxythieno[2,3-b]pyridine-2-carboxamide], the IC50 (Example A-2) lay in the range of 0.05 to 0.2 µM. The same measure, in the same setting: for `Cc1cnc2c(N)c(C(=O)N[C@H]3COc4cc(N5CC6CNCC(C5)O6)cc(F)c4C3)sc2n1` [Example 10-12, N-((3R)-7-(9-oxa-3,7-diazabicyclo[3.3.1]nonan-3-yl)-5-fluorochroman-3-yl)-7-amino-3-methylthieno[2,3-b]pyrazine-6-carboxamide] the value was 0.001 to 0.05 µM; for `Cc1cc(C)c2c(N)c(C(=O)N[C@H]3COc4cc(N5CC6CNCC(C5)O6)cc(F)c4C3)sc2n1` [Example 10-13, N-((3R)-7-(9-oxa-3,7-diazabicyclo[3.3.1]nonan-3-yl)-5-fluorochroman-3-yl)-3-amino-4,6-dimethylthieno[2,3-b]pyridine-2-carboxamide], 0.001 to 0.05 µM. Same read-out and setting: then `Cc1cc(C(F)(F)F)c2c(N)c(C(=O)N[C@H]3COc4cc(N5CCNCC5)cc(F)c4C3)sc2n1` [Example 10-14, (R)-3-amino-N-(5-fluoro-7-(piperazin-1-yl)chroman-3-yl)-6-methyl-4-(trifluoromethyl)thieno[2,3-b]pyridine-2-carboxamide], with 0.05 to 0.2 µM; and `Cc1ccc2c(N)c(C(=O)N(C)[C@H]3COc4cc(N5CCNCC5)cc(F)c4C3)sc2n1` [Example 10-15, 3-amino-N-[(3R)-5-fluoro-7-(piperazin-1-yl)-3,4-dihydro-2H-1-benzopyran-3-yl)-N,6-dimethylthieno[2,3-b]pyridine-2-carboxamide], with more than 2 µM. For `Cc1ccc2c(N)c(C(=O)N[C@H]3COc4cc(N5CC6CCC(C5)N6)c(F)c(F)c4C3)sc2n1` [Example 13-3, N-((3R)-7-(3,8-diazabicyclo[3.2.1]octan-3-yl)-5,6-difluorochroman-3-yl)-3-amino-6-methylthieno[2,3-b]pyridine-2-carboxamide], the IC50 (format Example A-2) was more than 2 µM.

Turning to `Cc1ccc2c(N)c(C(=O)N[C@@H]3COc4cc(N5CC6CCC(C5)N6)c(F)c(F)c4C3)sc2n1` [Example 13-4, N-((3S)-7-(3,8-diazabicyclo[3.2.1]octan-3-yl)-5,6-difluorochroman-3-yl)-3-amino-6-methylthieno[2,3-b]pyridine-2-carboxamide], the IC50 (format Example A-2) lay in the range of 0.05 to 0.2 µM. On the same count and under the same terms, for `Cc1ccc2c(N)c(C(=O)N[C@H]3COc4cc(N5CCNCC5)c(Cl)cc4C3)sc2n1` [Example 13-5, (R)-3-amino-N-(6-chloro-7-(piperazin-1-yl)chroman-3-yl)-6-methylthieno[2,3-b]pyridine-2-carboxamide] the value was more than 2 µM. Same read-out and setting: then `Cc1ccc2c(N)c(C(=O)N[C@@H]3COc4c(ccc(N5CCNCC5)c4Cl)C3)sc2n1` [Example 13-8, (S)-3-amino-N-(8-chloro-7-(piperazin-1-yl)chroman-3-yl)-6-methylthieno[2,3-b]pyridine-2-carboxamide], with more than 2 µM; and `Cc1ccc2c(N)c(C(=O)N[C@H]3COc4c(ccc(N5CCNCC5)c4Cl)C3)sc2n1` [Example 13_7, (R)-3-amino-N-(8-chloro-7-(piperazin-1-yl)chroman-3-yl)-6-methylthieno[2,3-b]pyridine-2-carboxamide], with 0.05 to 0.2 µM. On the same count and under the same terms, for `Cc1ccc2c(N)c(C(=O)N[C@H]3COc4cc(N5CCNCC5)ncc4C3)sc2n1` [Example 16, (R)-3-Amino-6-methyl-N-(7-(piperazin-1-yl)-3,4-dihydro-2H-pyrano[3,2-c]pyridin-3-yl)thieno[2,3-b]pyridine-2-carboxamide] the value was 0.2 to 2 µM; for `Cc1ccc2c(N)c(C(=O)N[C@H]3COc4cc(N5CC6CCC(C5)N6)nc(F)c4C3)sc2n1` [Example 17, N-((3R)-7-(3,8-Diazabicyclo[3.2.1]octan-3-yl)-5-fluoro-3,4-dihydro-2H-pyrano[3,2-c]pyridin-3-yl)-3-amino-6-methylthieno[2,3-b]pyridine-2-carboxamide], 0.05 to 0.2 µM; for `Cc1ccc2c(N)c(C(=O)N[C@H]3COc4c(cnc(N5CC6CCC(C5)N6)c4F)C3)sc2n1` [Example 18, N-((3R)-7-(3,8-Diazabicyclo[3.2.1]octan-3-yl)-8-fluoro-3,4-dihydro-2H-pyrano[3,2-c]pyridin-3-yl)-3-amino-6-methylthieno[2,3-b]pyridine-2-carboxamide], 0.05 to 0.2 µM.

Take `Cc1ccc2c(N)c(C(=O)N[C@H]3COc4nc(N5CCNCC5)ccc4C3)sc2n1` [Example 19, (R)-3-Amino-6-methyl-N-(7-(piperazin-1-yl)-3,4-dihydro-2H-pyrano[2,3-b]pyridin-3-yl)thieno[2,3-b]pyridine-2-carboxamide]: under “format Example A-2”, the IC50 lay within 0.2 to 2 µM. The same measure, in the same setting: for `Cc1ccc2c(N)c(C(=O)N[C@H]3COc4nc(N5CCNCC5)c(F)cc4C3)sc2n1` [Example 20, (R)-3-Amino-N-(6-fluoro-7-(piperazin-1-yl)-3,4-dihydro-2H-pyrano[2,3-b]pyridin-3-yl)-6-methylthieno[2,3-b]pyridine-2-carboxamide] the value was 0.2 to 2 µM. On the same count and under the same terms, for `CO[C@H]1CN(c2ccc3c(n2)CC[C@H](NC(=O)c2sc4nc(C)cc(C)c4c2N)C3)C[C@@H]1N` [Example 23-3, 3-amino-N-[(6S)-2-[(3S,4S)-3-amino-4-methoxypyrrolidin-1-yl]-5,6,7,8-tetrahydroquinolin-6-yl]-4,6-dimethylthieno[2,3-b]pyridine-2-carboxamide] the value was more than 2 µM; for `CO[C@H]1CN(c2ccc3c(n2)CC[C@H](NC(=O)c2sc4nc(C)ccc4c2N)C3)C[C@@H]1N` [Example 23-4, 3-amino-N-[(6S)-2-[(3S,4S)-3-amino-4-methoxypyrrolidin-1-yl]-5,6,7,8-tetrahydroquinolin-6-yl]-6-methylthieno[2,3-b]pyridine-2-carboxamide], more than 2 µM. Still for that read-out and setting: then `CO[C@H]1CN(c2ccc3c(n2)CC[C@@H](NC(=O)c2sc4nc(C)ccc4c2N)C3)C[C@@H]1N` [Example 23-5, 3-amino-N-[(6R)-2-[(3S,4S)-3-amino-4-methoxypyrrolidin-1-yl]-5,6,7,8-tetrahydroquinolin-6-yl]-6-methylthieno[2,3-b]pyridine-2-carboxamide], with more than 2 µM.
